Values quoted from earlier work in patent US8617906B2, “Identification and screening of triptolide target molecules” (priority 2004, dated 2013).

Legend:
AML cells = conditions: cited from earlier work
Akt/PKB = conditions: cited from earlier work
[1] = in vivo; cited from earlier work
[2] = cited from earlier work
[3] = 0.5-1 μg/kg; cited from earlier work
dopaminergic neurons = conditions: cited from earlier work
Thioredoxin reductase = Thioredoxin reductase (Homo sapiens, UniProt Q16881); conditions: cited from earlier work
IL-2 = conditions: cited from earlier work
[4] = tested on: human T cell lymphoma (Jurkat) cells; conditions: cited from earlier work

Thioredoxin reductase, sequence (Q16881 151-649 limits assumed): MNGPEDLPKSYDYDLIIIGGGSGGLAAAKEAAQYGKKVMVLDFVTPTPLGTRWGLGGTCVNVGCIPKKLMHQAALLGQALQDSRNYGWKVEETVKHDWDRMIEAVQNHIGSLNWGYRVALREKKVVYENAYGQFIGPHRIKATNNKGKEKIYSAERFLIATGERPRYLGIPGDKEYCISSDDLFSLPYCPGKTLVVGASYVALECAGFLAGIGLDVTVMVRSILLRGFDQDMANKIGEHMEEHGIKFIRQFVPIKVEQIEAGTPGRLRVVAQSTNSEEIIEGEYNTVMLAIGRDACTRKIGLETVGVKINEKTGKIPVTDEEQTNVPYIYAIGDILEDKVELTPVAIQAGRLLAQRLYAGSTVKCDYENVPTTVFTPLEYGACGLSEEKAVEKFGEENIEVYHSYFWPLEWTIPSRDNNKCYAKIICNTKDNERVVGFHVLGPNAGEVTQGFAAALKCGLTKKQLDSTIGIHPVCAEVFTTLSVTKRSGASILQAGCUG

## Cc1cc(C)c(/C=C2\C(=O)Nc3ccccc32)[nH]1 [SU-5416]
AML cells
  VEGF-induced colony formation / clonogenic response: abolished
Akt/PKB
  VEGF-stimulated phosphorylation of Akt/PKB: abolished

## 14-succinimide ester of triptolide
[1]
  bleomycin-induced PF: block bleomycin-induced PF

## CC(C)[C@]1(O)[C@H](Cl)[C@@H]2O[C@]23[C@]2(O[C@H]2C[C@H]2C4=C(CC[C@@]23C)C(=O)OC4)[C@@H]1O [Tripchlorolide]
[2]
  conversion in vivo to triptolide: prodrug of triptolide
[3]
  TNF-α and IL-2 levels in the brain: attenuates the elevation of TNF-α and IL-2 levels in the brain
  dopamine depletion: attenuates dopamine depletion
  recovery of rats undergoing neurosurgery: improves recovery of rats undergoing neurosurgery
  sparing of SN neurons: significant sparing of SN neurons
  survival of dopaminergic neurons: increases the survival of dopaminergic neurons
Dopaminergic neurons
  dopaminergic neuron axonal elongation: promotes dopaminergic neuron axonal elongation
  protection from neurotoxic lesion induced by 1-methyl-4-phenylpyridinium ion: protects dopaminergic neurons from a neurotoxic lesion
Dopaminergic neurons; in situ hybridization
  brain-derived neurotrophic factor mRNA expression: stimulates brain-derived neurotrophic factor mRNA expression

## CC(=O)OC[C@H]1O[C@@H]([S-])[C@H](OC(C)=O)[C@@H](OC(C)=O)[C@@H]1OC(C)=O.CCP(CC)CC.[Au+] [auranofin]
Thioredoxin reductase
  thioredoxin reductase as drug target: target of auranofin

## CC(C)[C@]12O[C@H]1[C@@H]1O[C@]13[C@]1(O[C@H]1C[C@H]1C4=C(CC[C@@]13C)C(=O)OC4)[C@@H]2OC(=O)CCC(=O)[O-].[Na+] [PG490-88]
[2]
  conversion in vivo to triptolide: converting in vivo to triptolide

## CC(C)[C@]12O[C@H]1[C@@H]1O[C@]13[C@]1(O[C@H]1C[C@H]1C4=C(CC[C@@]13C)C(=O)OC4)[C@H]2F [PG763, 14-deoxy-14α-fluoro triptolide]
IL-2
  inhibition of IL-2: inhibition of IL-2
[4]
  cytotoxicity: cytotoxicity in human T cell lymphoma (Jurkat) cells
